Measurements as given in patent US20240024350A1, “ANTI-CANCER COMPOSITION CONTAINING AURANOFIN AND MERCAPTO COMPOUND AND USE THEREOF” (SUN YAT-SEN UNIVERSITY, priority 2020, published 2024).
Like-named read-outs stand apart in the source and are kept apart here.

Legend:
[1] = system: HepG-2 human liver cancer cells; assay: MTT colorimetric proliferation / cell survival assay, HepG-2; format: cell-based; conditions: for Cell survival rate (%) HepG2: Liver cancer, TGTA 50 μM
Experimental: (§1) A flask with the cancer cells required for the experiment, with an original culture solution discarded, was washed for three times with 2 mL of PBS, 1 mL of pancreatin was added for digestion for 30 s, and 2 mL of a medium was added to terminate the digestion. The cells were transferred to a centrifuge tube and centrifuged at 1000 rpm for 3 min, the supernatant was discarded, and 2 mL of a medium was added and blew 10 times to be mixed uniformly. 10 μL of a cell suspension was taken for cell counting, and spread on a 96-well plate, with 5000 cells per well and 3 duplications for each compound, and then the number of cells and cell wells was calculated. The amount of required cell suspension and the number of cells for medium dilution were calculated by cell counting. 100 μL of medium was plated with 5000 cells per well, pipetted and mixed uniformly, and the cells were inoculated using a volley, placed in an incubator for culture, and marked.
(§2) (2) The cells cultured in step (1) was taken, and discarded with the original medium. Auranofin mother liquor was diluted to a diluent with final concentrations of 0, 0.78125, 1.5625, 3.125, 6.25, 12.5, 25, 50 and 100 μM, and mixed uniformly. A volley (using 3 wells) was used to draw 100 μL of dilution per well, a 96-well plate was tilted, diluents with each concentration were added in sequence to the corresponding 3 marked wells carefully to prevent poking the cells, blown and sucked about 3 times to be mixed uniformly, marked, shaken for 3 times, and put into a CO2 incubator for culture. The above steps were repeated for each auranofin diluent.
(§3) After auranofin was added for culture for 1 hour, the mother liquor of the mercapto compound was diluted into […] and mixed uniformly. A volley (using 3 wells) was used to suck 20 μL of diluent per well, the 96-well plate was tilted, the diluents of different mercapto compounds were added in sequence to the corresponding 3 marked wells carefully to prevent poking the cells, blown and sucked about 3 times to be mixed uniformly, and put back to the incubator to continue culture.
(§4) After different mercapto compounds were added to cells for 24 h, 20 μL of MTT (with a concentration of 5 mg/mL in PBS) per well was added to the 96-well plate by a volley; and incubation was carried out at 37° C. for 4 h. At the end of incubation, the MTT mixture was sucked out, and DMSO was added at 130 μL/well using a volley.
(§5) According to the results of Table 1-2, the killing effect of auranofin in combination with various compounds (with 30% FBS) on HCT116 human colon cancer cells and the killing effect of the auranofin-TGTA (50 μM) in combination with other cancer cells (lung cancer, colon cancer, breast cancer, liver cancer, cervical cancer and gastric cancer cells) were further detected by using the same method as the above.

[2] = system: A549 human lung cancer cells; assay: MTT colorimetric proliferation / cell survival assay, A549; format: cell-based; conditions: for Cell survival rate (%) A549: Lung cancer, TGTA 50 μM
Experimental: as §1, §2, §3, §4, §5

[3] = system: MCF-7 human breast cell cancer cells; assay: MTT colorimetric proliferation / cell survival assay, MCF-7; format: cell-based; conditions: for Cell survival rate (%) MCF-7: breast cancer, TGTA 50 μM
Experimental: as §1, §2, §3, §4, §5

[4] = system: PC9 human lung cancer cells; assay: MTT cell survival assay, PC9; format: cell-based; conditions: TGTA 50 μM
Experimental: as §1, with “marked. […]” for “marked.”
as §5

[5] = system: PCGR lung cancer cells; assay: MTT cell survival assay, PCGR; format: cell-based; conditions: TGTA 50 μM
Experimental: as §1, with “marked. […]” for “marked.”
as §5

[6] = system: Hela human cervical cancer cells; assay: MTT cell survival assay, Hela; format: cell-based; conditions: TGTA 50 μM
Experimental: as §1, with “marked. […]” for “marked.”
as §5

[7] = system: MGC803 human gastric cancer cells; assay: MTT cell survival assay, MGC803; format: cell-based; conditions: TGTA 50 μM
Experimental: as §1, with “marked. […]” for “marked.”
as §5

[8] = system: HCT116 human colon cancer cells; assay: MTT colorimetric proliferation / cell survival assay, HCT116; conditions: for Cell survival rate (%) HCT116: colon cancer, TGTA 50 μM; for Cell survival rate (%): compound alone, others not given; for Cell survival rate (%) / Cell survival rate after addition of 10 μM auranofin (%): with 30% FBS, 50 μM for TGTA, β-mercaptoethanol, mercaptoethylamine, DEDT; for Cell survival rate after addition of 10 μM auranofin (%): compound plus 10 μM auranofin, listed as Auranofin = auranofin alone
[9] = system: TrxR; assay: Intracellular TrxR activity in HepG2 cells (DTNB reduction); format: cell-based, human
Experimental: (§6) HepG2 cells were used as a test subject.
(§7) The cells were inoculated into a 6-well plate at 2×10^5 cell/well and incubated for 24 h.
After the incubation, the cell culture medium was replaced with 30% FBS to simulate the high concentration mercapto environment under the normal physiological condition, and used as a control (without adding any reagents). The experimental group was added with 0.5 μM of auranofin for incubation at 37° C. for 30 min, and then added with the mercapto compound (DEDT, β-mercaptoethanol or mercaptoethylamine) for incubation for 30 min (final concentration of DMSO in the system was ≤1%). The incubated cells were washed for 3 times with PBS, added with 100 μL of icy lysis buffer (containing 50 mM of phosphate buffer with pH 7.4, 1 mM EDTA, and 0.10% Triton-X 100), and then lysed on ice for 5 min to collect the cell lysate.
100 μL of buffer (containing 50 mM of potassium phosphate with pH 7.4, 1 mM EDTA, and 0.2 mM NADPH) was added to the collected cell lysate (10 μg protein), 5,5′-dithiobis (2-nitrobenzoic acid) (DTNB, with a final concentration of 3 mM) was added to initiate a reaction, and the activity of TrxR was obtained on the basis of the increased OD value in 10 minutes (OD detection wavelength was 410 nm). Auranofin alone was the positive control sample, and the blank group was the negative control.

[10] = system: HCT-8 human colon adenocarcinoma cells; assay: MTT colorimetric proliferation assay, HCT-8; format: cell-based; conditions: containing 40 mg/mL BSA; 200 μM of added compound
Experimental: as §1
(2) The cells cultured in step (1) was taken, and discarded with the original medium. Auranofin mother liquor was diluted to a diluent with final concentrations of 0, 0.78125, 1.5625, 3.125, 6.25, 12.5, 25, 50 and 100 μM, and mixed uniformly. […]

[11] = system: HepG2 cells; assay: Cell uptake of auranofin (gold by ICP-MS) in HepG2 cells; format: cell-based, human
Experimental: as §6, §7
After the incubation, the cell culture medium was replaced with 30% of FBS to stimulate a high-concentration mercapto environment under the normal physiological condition, and used as a control (without adding any reagents). The experimental group was added with 3 μM of auranofin for incubation at 37° C. for 10 min and then added with the mercapto compound (DEDT, β-mercaptoethanol or mercaptoethylamine) for incubation for 1 h (final concentration of DMSO in the system was 1%). After incubation, the cells were immediately washed for 3 times with PBS, 500 μL of ultrapure water was added to each well to break the cells, and after 15 min, the cell lysate was collected.
The collected cell lysate was dissolved by adding aqua regia and diluted with ultrapure water to a proper proportion. Inductively coupled plasma mass spectrometry (ICP-MS) was used for gold detection. The cell uptake rate of 3 μM […] without FBS was used as the control.
Wherein, the above uptake is the amount of gold (mg) in 1 g protein in the cell.

[12] = system: colon cancer cell HCT116 xenograft; assay: Mouse tumor model, HCT116 xenograft; format: in vivo, BALB/Cann nu (Nude) mice; conditions: HCT116 xenograft in nude mice; intraperitoneal once a day; auranofin 3 mg/kg/day, mercapto compound (β-mercaptoethanol or TGTA) 40 mg/kg/day
Experimental: Establishment of mouse tumor model: 2 million colon cancer cell HCT116 cells suspended in PBS were injected subcutaneously into the dorsal side of 5-7 week-old female BALB/Cann nu (Nude) mice to establish a xenograft model.
When the tumor volume reached about 50 mm^3 (3-4 days after tumor inoculation), mice were randomly divided into a control group and a treatment group, the control group was treated with corn oil, the treatment group was intraperitoneally injected with auranofin (3 mg/kg mouse body weight/day) in combination with various mercapto compounds (β-mercaptoethanol or TGTA, 40 mg/kg mouse body weight/day) once a day. When the tumor volume grew to 1000 mm^3, the mice were anesthetized and then sacrificed by dislocation of the cervical spine.

[13] = system: acute lymphocytic leukemia cell P388; conditions: mice inoculated with P388; earlier studies; cited from earlier work
[14] = system: solid tumor models; conditions: several solid tumor models; intraperitoneal injection; follow-up studies; cited from earlier work
[15] = mercapto compound alone 200 μM, 30% FBS

Compound: CC(=O)OC[C@H]1O[C@@H](S)[C@H](OC(C)=O)[C@@H](OC(C)=O)[C@@H]1OC(C)=O [TGTA, 1-thio-β-D-glucose tetraacetate]
- Cell survival rate (%) HepG2 [1]: 104 ± 4%
- Cell survival rate (%) A549 [2]: 104 ± 6%
- Cell survival rate (%) MCF-7 [3]: 99 ± 3%
- Cell survival rate (%) PC9 [4]: 104 ± 2%
- Cell survival rate (%) PCGR [5]: 101 ± 3%
- Cell survival rate (%) Hela [6]: 87 ± 6%
- Cell survival rate (%) MGC803 [7]: 104 ± 9%
- Cell survival rate (%) HCT116 [8]: 97 ± 5%
- Cell survival rate (%) [8]: 97 ± 5%
- Cell survival rate after addition of 10 μM auranofin (%) [8]: 18 ± 2%

Compound: [Na+].[Na+].[Na+].[O-]P([O-])([O-])=S [Sodium thiophosphate hydrate]
- Cell survival rate (%) [8]: 99 ± 8%
- Cell survival rate after addition of 10 μM auranofin (%) [8]: 79 ± 4%

Compound: NCCS [mercaptoethylamine, mercaptoethanamine]
- Activity of TrxR [9, 15]: 118.2%
- Cell survival rate (%) [8]: 105 ± 7%
- Cell survival rate after addition of 10 μM auranofin (%) [8]: 85 ± 3%

Compound: OCCS [β-mercaptoethanol]
- Activity of TrxR [9, 15]: 127.3%
- Cell survival rate (%) [8]: 96 ± 15%
- Cell survival rate after addition of 10 μM auranofin (%) [8]: 55 ± 4%

Compound: CC(=O)OC[C@H]1O[C@@H]([S-])[C@H](OC(C)=O)[C@@H](OC(C)=O)[C@@H]1OC(C)=O.CCP(CC)CC.[Au+] [Auranofin]
- Cell survival rate (%) HepG2 [1]: 87 ± 1%
- IC50 ([1]; auranofin alone, without BSA/FBS, read-out: IC50 HepG2 Human liver cancer cells): 1.3 µM
- IC50 ([1]; containing 40 mg/mL BSA, 200 μM of added compound, read-out: IC50 HepG-2 Human liver cancer cells): 16.6 µM
- IC50 ([1]; under the normal physiological condition, auranofin alone, read-out: IC50 value, proliferation of HepG-2 human liver cancer cells): > 30 µM
- IC50 ([1]; with 10% FBS, mercapto compound added 1 h after auranofin, MTT after 24 h, read-out: IC50 HepG-2 Human liver cancer cells): 3 µM
- Cell survival rate (%) A549 [2]: 81 ± 7%
- IC50 ([2]; auranofin alone, without BSA/FBS, read-out: IC50 A549 Human lung cancer cells): 4.2 µM
- IC50 ([2]; containing 40 mg/mL BSA, 200 μM of added compound, read-out: IC50 A549 Human lung cancer cells): 70.5 µM
- IC50 ([2]; under the normal physiological condition, auranofin alone, read-out: IC50 value, proliferation of A549 human lung cancer cells): > 30 µM
- IC50 ([2]; with 10% FBS, mercapto compound added 1 h after auranofin, MTT after 24 h, read-out: IC50 A549 Human lung cancer cells): 12.9 µM
- IC50 ([3]; auranofin alone, without BSA/FBS, read-out: IC50 MCF-7 Human breast cell cancer cells): 3.4 µM
- Cell survival rate (%) MCF-7 [3]: 80 ± 2%
- IC50 ([3]; containing 40 mg/mL BSA, 200 μM of added compound, read-out: IC50 MCF-7 Human breast cell cancer cells): 39.7 µM
- IC50 ([3]; under the normal physiological condition, auranofin alone, read-out: IC50 value, proliferation of MCF-7 human breast cell cancer cells): > 30 µM
- IC50 ([3]; with 10% FBS, mercapto compound added 1 h after auranofin, MTT after 24 h, read-out: IC50 MCF-7 Human breast cell cancer cells): 5.7 µM
- IC50 [10]: 33.2 µM
- Cell survival rate (%) PC9 [4]: 93 ± 3%
- Cell survival rate (%) PCGR [5]: 37 ± 4%
- Cell survival rate (%) Hela [6]: 46 ± 7%
- Cell survival rate (%) MGC803 [7]: 79 ± 3%
- Activity of TrxR ([9]; 0.5 μM auranofin alone, with 30% FBS): 63.6%
- Activity of TrxR ([9]; 0.5 μM auranofin alone, with 30% FBS, listed as Positive control): 63.6%
- Activity of TrxR ([9]; 0.5 μM auranofin alone, without FBS, relative to negative control 100%): 15.9%
- Activity of TrxR ([9]; 0.5 μM auranofin alone, without FBS, relative to negative control 100%, listed as Positive control): 15.9%
- uptake of gold [11]: 728 mg/g protein
- growth of tumors [12]: not effectively inhibited
- life span of mice [13]: effectively prolong the life span
- life span of mice and growth of tumors [14]: could neither prolong the life span of mice nor inhibit the growth of tumors
- Cell survival rate (%) HCT116 [8]: 75 ± 5%
- Cell survival rate after addition of 10 μM auranofin (%) [8]: 75 ± 5%
- IC50 ([8]; read-out: IC50 HCT116 Human colon cancer cells, auranofin alone, without BSA/FBS): 1 µM
- IC50 ([8]; read-out: IC50 HCT116 Human colon cancer cells, with 10% FBS, mercapto compound added 1 h after auranofin, MTT after 24 h): 3.4 µM
- IC50 ([8]; read-out: IC50 HCTI16 Human colon cancer cells, containing 40 mg/mL BSA, 200 μM of added compound): 30 µM
- IC50 ([8]; read-out: IC50 value, proliferation of HCT116 human colon cancer cells, under the normal physiological condition, auranofin alone): > 30 µM

Compound: CCN(CC)C(=S)[S-].[Na+] [DEDT, Sodium diethyldithiocarbamate]
- Activity of TrxR [9, 15]: 88.6%
- Cell survival rate (%) [8]: 78 ± 10%
- Cell survival rate after addition of 10 μM auranofin (%) [8]: 0.9 ± 1.6%
